The results in this text go back to patent US5240959A, “Aranorosinol-A and aranorosinol-B produced by Pseudoarachniotus roseus” (Hoechst Aktiengesellschaft, priority 1991, dated 1993).

Structures are written as SMILES. ≈ marks a conversion by molar mass, not a printed value.

The test system of one data set is Saccharomyces cerevisiae. The experiment in a line: Minimum inhibitory concentration, Saccharomyces cerevisiae. It counts as cell-based. The source says: (§1) The minimum inhibitory concentrations required to inhibit different bacteria and fungal strains by Aranorosinol-A and Aranorosinol-B are given in Table I
A further data set relates to Klebsiella pneumoniae. Nature of the data set: Minimum inhibitory concentration, Klebsiella pneumoniae. The data set is classed as cell-based.
Source text: as §1

A further data set deals with Microsporum. The experiment in a line: Minimum inhibitory concentration, Microsporum. It counts as cell-based.
Source text: as §1

Another data set deals with Proteus vulgaris. Nature of the data set: Minimum inhibitory concentration, Proteus vulgaris. The data set is classed as cell-based.
Source text: as §1

Data set [1] relates to bacteria and fungal strains. Nature of the data set: Antibacterial and antifungal activity spectrum. It counts as cell-based. Conditions: conclusion from Table I.
Source text: as §1

Data set [2] concerns Staphylococcus aureus 20240. The experiment in a line: Minimum inhibitory concentration, Staphylococcus aureus 20240. It counts as cell-based.
Source text: as §1

The subject of the next data set is Aspergillus niger. Nature of the data set: Minimum inhibitory concentration, Aspergillus niger. It counts as cell-based.
Source text: as §1

Another data set deals with E. coli Ess 2231. Nature of the data set: Minimum inhibitory concentration, E. coli Ess 2231. The note with it: Escherichia coli, ESS2231. It counts as cell-based.
Source text: as §1

The subject of data set [3] is Staphylococcus aureus 209 P. Nature of the data set: Minimum inhibitory concentration, Staphylococcus aureus 209 P. The data set is classed as cell-based.
Source text: as §1

Another data set is described as follows: Solubility. It counts as physicochemical.
In another data set the test system is Candida albicans. The experiment in a line: Minimum inhibitory concentration, Candida albicans. It counts as cell-based.
Source text: as §1

A further data set deals with Bacillus subtilis. Nature of the data set: Minimum inhibitory concentration, Bacillus subtilis. It counts as cell-based.
Source text: as §1

In the next data set the test system is Salmonella typhimurium. The experiment in a line: Minimum inhibitory concentration, Salmonella typhimurium. The data set is classed as cell-based. Conditions: Salmonella enterica.
Source text: as §1

Another data set relates to Pseudomonas aeruginosa. Nature of the data set: Minimum inhibitory concentration, Pseudomonas aeruginosa. The data set is classed as cell-based.
Source text: as §1

Another data set concerns E. coli 9632. Nature of the data set: Minimum inhibitory concentration, E. coli 9632. It counts as cell-based. Conditions: Escherichia coli.
Source text: as §1

Data set [4] deals with Trichophyton mentagrophytes. The experiment in a line: Minimum inhibitory concentration, Trichophyton mentagrophytes. The data set is classed as cell-based.
Source text: as §1

Another data set deals with Streptococcus faecalis. The experiment in a line: Minimum inhibitory concentration, Streptococcus faecalis. The note with it: Enterococcus faecalis. The data set is classed as cell-based.
Source text: as §1

Setting [5] is: in dichloromethane, chloroform, acetone, methanol, diethyl ether, ethyl acetate and dimethyl sulfoxide.

Usually MIC stands for the lowest concentration that inhibits growth of the organism. As for `CCCCCCC(C)/C=C(C)/C=C/C(=O)NC1CC2(OC1O)C1OC1C(O)C1OC12` (stereo not drawn) [Aranorosinol-A], the MIC is 31.2 mg/L (≈ 74.1 µM) against Saccharomyces cerevisiae; more than 250 mg/L against Klebsiella pneumoniae; more than 250 mg/L against Microsporum; more than 250 mg/L against Proteus vulgaris; 31.2 mg/L (≈ 74.1 µM) in [2]; more than 250 mg/L against Aspergillus niger. Besides, the MIC against E. coli Ess 2231 was 62.5 mg/L (≈ 148 µM); in [3], 15.6 mg/L (≈ 37 µM); with Candida albicans, 62.5 mg/L (≈ 148 µM); against Bacillus subtilis, 3.9 mg/L (≈ 9.25 µM); with Salmonella typhimurium, more than 250 mg/L; with Pseudomonas aeruginosa, more than 250 mg/L. Moreover, the values for the MIC (in the data set with E. coli 9632; in data set [4]; in the data set with Streptococcus faecalis) were more than 250 mg/L, 62.5 mg/L (≈ 148 µM) and 31.2 mg/L (≈ 74.1 µM), respectively. Moreover, the “activity against bacteria and fungi (in words)” value in data set [1] is “active against Gram-positive, Gram-negative bacteria and against yeast and filamentous fungi”. In addition, the Solubility result is given as “soluble” in the data set “Solubility” (setting [5]) and “Insoluble” in the data set “Solubility” (in n-hexane, water).

Turning to `CCCCCCC(C)/C=C(C)/C=C/C(=O)NC1CC2(OC1O)C1OC1C(O)(CC(C)=O)C1OC12` (stereo not drawn) [Aranorosinol-B], the MIC against Saccharomyces cerevisiae is 250 mg/L (≈ 523 µM); against Klebsiella pneumoniae, more than 250 mg/L; against Microsporum it was more than 250 mg/L; against Proteus vulgaris, more than 250 mg/L; in data set [2], 15.6 mg/L (≈ 32.7 µM); against Aspergillus niger, more than 250 mg/L. For the same compound, the MIC with E. coli Ess 2231 was more than 250 mg/L; in [3], 31.2 mg/L (≈ 65.4 µM); against Candida albicans, 250 mg/L (≈ 523 µM); in the data set on Bacillus subtilis, 15.6 mg/L (≈ 32.7 µM); in the data set on Salmonella typhimurium, more than 250 mg/L; in the data set with Pseudomonas aeruginosa, more than 250 mg/L. For the same compound, the minimal inhibitory concentration (MIC) against E. coli 9632 was more than 250 mg/L; in data set [4] it was more than 250 mg/L; with Streptococcus faecalis, 125 mg/L (≈ 262 µM). Also, the “activity against bacteria and fungi (in words)” value in [1] was “active against Gram-positive bacteria only”. Further, the Solubility entry in “Solubility” (setting [5]) is listed as “soluble”; in “Solubility” (in n-hexane, water), “Insoluble”.
